Publication PMC8375385, “In vitro Effect of Harmine Alkaloid and Its N-Methyl Derivatives Against Toxoplasma gondii” (Frontiers in Microbiology, 2021)
Entries after “also recorded” stand apart in the source; their conditions may differ. Like-named read-outs stand apart in the source and are kept apart here.

Assays:
[1] = system: T. gondii RH RFP tachyzoites; assay: Time of removal assay; format: cell-based, Toxoplasma gondii; details: for growth recovery after drug removal: followed up to 15 d.p.i.
human topoisomerase II = system: human topoisomerase II; parameters: method as in Cao et al., 2005; details: 600 μM; ref Cao et al., 2005; cited from earlier work
T. gondii γH2A.X = assay: Western blot of γH2A.X in intracellular tachyzoites; format: cell-based, Toxoplasma gondii; details: 2 days
Description: Monolayers of hTERT cells grown in 12-well plates were infected with 5 × 10^6 tachyzoites of the RH Δhxgprt strain. After the invasion process, cells were washed with PBS and incubated with 3 (7.5 μM), CPT (10 μM), 3 (7.5 μM) plus CPT (10 μM), or the vehicle (DMSO), diluted in supplemented DMEM for 2 days. Then, infected cells were harvested by trypsinization, centrifuged, resuspended in PBS, and lysed by freeze–thaw cycling. Samples were resolved by SDS-PAGE (15%), and a western blot assay was conducted. Membranes were incubated (1 h, RT) with rabbit anti-T. gondii γH2A.X (1:500) ([Contreras et al., 2021]) and murine anti-SAG1 (Novus Biologicals, 1:500). Finally, they were washed several times with PBS-T and incubated with alkaline phosphatase-conjugated anti-rabbit or anti-mouse secondary antibodies, diluted to 1:4,000 (Santa Cruz Biotechnology). Immunoreactive protein bands were visualized by the NBT-BCIP (Promega) method. Densitometric analysis of scanned images was performed using the Image-Pro Plus software.

ctDNA = details: pH 7.4; ref Vignoni et al., 2014; cited from earlier work
[2] = system: T. gondii RH Δhxgprt tachyzoites; assay: Tachyzoite cell cycle analysis by flow cytometry; format: cell-based, Toxoplasma gondii; details: infected hTERT fibroblasts, 2 days; 1–3 at 7.5 μM, SDZ at 500 μM
Description: Tachyzoites of the RH Δhxgprt strain (3 × 10^6) were added to hTERT cell monolayers grown into six-well plates. After invasion was allowed, the medium was changed, and infected cells were incubated for 2 days with 1, 2, and 3 (7.5 μM); SDZ (500 μM, positive control); or the vehicle (negative control), diluted in supplemented DMEM. Then, cells were detached using trypsin/EDTA solution and gently ruptured by successive passages through 27- and 30-gauge needles in order to obtain free parasites. Samples were centrifuged (2,000 rpm, 10 min), washed with PBS, fixed with 70% ethanol, and stored for 1 day at −20°C. Afterward, samples were processed and stained as described previously ([Munera Lopez et al., 2019]). At least 10,000 tachyzoites per sample were analyzed by flow cytometry measurements, carried out in a BD FACSCalibur equipment. Results were analyzed using FlowJo software 7.6. All assays were performed in duplicates, in two independent experiments.

[3] = system: T. gondii RH RFP tachyzoites; assay: Lytic cycle growth assay (RFP fluorescence); format: cell-based, Toxoplasma gondii; details: for IC50: Toxoplasma gondii, Fibroblast, RH RFP strain in hTERT fibroblasts, read-out: IC50 (converted)
[4] = system: T. gondii RH Δhxgprt tachyzoites; assay: Replication assay (tachyzoites per PV); format: cell-based, Toxoplasma gondii
Description: The effect of βCs on the replication process was evaluated on both extracellular and intracellular treated tachyzoites of the strain RH Δhxgprt. In the first case, the procedure followed was described above (see invasion assay), but after allowing the invasion, samples were washed with PBS and incubated for 1 day with supplemented DMEM (without drugs), before fixing and staining. To investigate βCs’ action on intracellular parasites, confluent Vero cells grown in 24-well plates were infected with 2 × 10^6 tachyzoites per well and treated for 2 days with different concentrations of the investigated drugs or the vehicle (DMSO) as negative control. Finally, they were fixed and immunolabeled as detailed previously. The number of tachyzoites per PV was analyzed under a microscope with × 63 magnification. At least 100 PVs selected at random were scored in triplicates, per compound dose, in two independent sets of experiments. Results are depicted as the mean percentage of PVs (% PV) that contained a geometric progression 2^n (with “n” being a natural number ≥ 0) of tachyzoites per PV ± SEM.

topoisomerase I = system: topoisomerase I; parameters: method as in Cao et al., 2005; details: cell-free system, ref Cao et al., 2005, cited from earlier work
[5] = system: T. gondii RH Δhxgprt tachyzoites; assay: Plaque reduction assay; format: cell-based, Toxoplasma gondii
Description: Monolayers of hTERT fibroblasts grown into 24-well plates were infected with 1 × 10^4 tachyzoites per well of the RH Δhxgprt strain. Then, they were washed with PBS and treated with different concentrations of 3 or the vehicle (DMSO) diluted in supplemented DMEM. After 6.5 days of incubation, monolayers were washed, fixed with ethanol (70% v/v), and stained with crystal violet (Sigma). The IC50 value was obtained by nonlinear regression analysis of the number of plaques vs log[3] (variable Hill’s slope). The area of the plaques was analyzed by ImageJ software.

[6] = system: T. gondii RH Δhxgprt tachyzoites; assay: Invasion assay, pretreated extracellular tachyzoites; format: cell-based, Toxoplasma gondii; details: extracellular tachyzoites preincubated 1 h, 0 up to ∼50 μM, Vero cells
Description: Extracellular tachyzoites of RH Δhxgprt strain (2 × 10^6) were preincubated for 1 h (at 37°C and 5% CO2) with different doses of the assayed compounds (up to 40–50 μM) or the vehicle (DMSO) diluted in supplemented DMEM. Parasites were, then, centrifuged, resuspended in supplemented DMEM, and were allowed to invade Vero cell monolayers grown on coverslips in 24-well plates by incubation for 10 min on ice followed by 1 h at 37°C. Invasion assay was performed as described elsewhere ([Yañuk et al., 2017]). To facilitate counting, cells were analyzed by indirect immunofluorescence assay (IFA). Immunostaining was performed using anti-SAG1 mouse monoclonal (Novus Biologicals, 1:50)/goat anti-mouse Alexa Fluor 488 (Invitrogen, 1:4,000) antibodies. Fifty random fields per sample, with a similar number of host cells, were analyzed under microscope (Zeiss Axio Observer Colibri 7, magnification × 63). The number of parasitophorous vacuoles per field (PV/field) was counted. Data are presented as means of PV/field ± SEM. Two independent experiments were performed in duplicates.

COc1ccc2c3ccnc(C)c3n(C)c2c1 [Compound 3, 9-methyl-harmine]
growth recovery after drug removal ([1]; 1.7 and 2 days of treatment, 7.5 μM): significant reduction of tachyzoite growth
growth recovery after drug removal ([1]; 1.7 and 2 days of treatment, 10 μM): total growth inhibition
growth recovery after drug removal ([1]; 0.7 days of treatment, 5, 7.5 and 10 μM): not effective
parasite growth under continuous treatment ([1]; continuous treatment up to 15 days, 5, 7.5 and 10 μM): complete inhibition of parasite growth
inhibition of human topoisomerase II (human topoisomerase II): do not inhibit
γH2A.X levels when co-administered with CPT (T. gondii γH2A.X; 3 7.5 μM plus CPT 10 μM): reduced them significantly
γH2A.X levels (T. gondii γH2A.X; intracellular tachyzoites, CPT 10 μM or 3 7.5 μM alone): decreased basal levels
overall binding constant to ctDNA (ctDNA): 16.8 ± 0.5 × 10^3 M^–1 in bp
effect on tachyzoite cell cycle (DNA content, G1 vs S/M) [2]: arrest in S/M phases; also recorded: significant enrichment in tachyzoite DNA content compatible with S/M phases
selectivity index (SI) ([3]; CC50 hTERT 4 days / IC50 at 4 d.p.i.): 17.2
effect on tachyzoite growth ([3]; RH RFP in hTERT fibroblasts, up to 10 μM, 3 d.p.i.): strong growth inhibition
IC50 ([3]; 72 h, 3 d.p.i. (Table 1 footnote d)): 1600 ± 200 nM
IC50 ([3]; 96 h, 4 d.p.i. (Table 1 footnote e)): 1800 nM
increase of % PV with one parasite (% PV (1P)) vs control ([4]; 1-h-pretreated extracellular tachyzoites, 5–50 μM, 1 day of incubation without drug): fivefold
% PV (1P) ([4]; intracellular tachyzoites in Vero cells, 7.5 μM, 2 days of incubation): 78%
inhibition of topoisomerase I activity (topoisomerase I; 50 μM): strongly decreases
inhibition of topoisomerase I activity (topoisomerase I; 150 μM): inhibited
parasite growth in plaque assay ([5]; 7.5 μM, 6.5 days, RH Δhxgprt): no parasite growth
IC50 ([5]; Toxoplasma gondii, Fibroblast, 156 h, read-out: IC50 (number of plaques)): 3100 nM
effect on invasion process (PV/field) [6]: negligible or rather low effect
